The source of these data is patent publication US20240174695A1, “Spirocycle Containing Bicyclic Heteroaryl Compounds” (Protego Biopharma, Inc., priority 2022, published 2024).

This assay deals with Recombinant amyloidogenic full length light chain protein WIL-FL T46L. Put plainly: Differential Scanning Fluorimetry Assay (thermal shift assay). Note: test concentration or dose not given here. It is filed as binding. To be noted: Thermal Shift Protein Stability Kit (Biotium), 96-well plates; protein and compounds incubated at RT for 30 min before adding the dye. How it is done: Differential Scanning Fluorimetry Assay
The stabilization effects the compounds have on the immunoglobulin light chain protein were quantitively measured using a thermal shift assay. Recombinant amyloidogenic full length light chain protein WIL-FL T46L was produced in E. coli, purified, and used in the assay. The Thermal Shift Protein Stability Kit from Biotium was used and the assay was done in 96-well plates following the manufacturer's instructions. The protein and compounds were incubated at RT for 30 min before adding the dye and subjected to the thermal shift assay. The thermal stability (Tm) of each sample was then determined using standard curve fitting methods and compared to vehicle. Data are expressed as temperature shift: [Tm]compound−[Tm]vehicle.
Results • 0-0.5° C.=* • >0.5-1° C.=** • >1-1.5° C.=*** • >1.5-2.5° C.=**** • >2.5° C.=*****
(In DSF a fluorescence change marks the thermal transition of the protein.)

On to `Cc1cc(OC[C@H](C)c2ccccc2)cn2nc(C(C)(O)CN3CC4(CCN(C(=O)Cc5ncnn5C)CC4)NC3=O)nc12` (some centres unmarked) [Compound 66], for which the “DSF temperature shift: [Tm]compound−[Tm]vehicle” value (shortened to “DSF temperature shift”) is listed as “*** (>1-1.5° C.=***)”. Regarding `COc1cccc(N2CCC3(CC2)CN(CC(O)c2nc4c(C)cc(OCC5(c6ccccc6)CC5)cn4n2)C(=O)N3)n1` (centres unmarked) [Compound 140], the “DSF temperature shift” value is “**** (>1.5-2.5° C.=****)”. The result for `COC(=O)c1cccc(N2CC3(CN(CCc4nc5c(C)cc(OC[C@H](C)c6ccccc6)cn5n4)C(=O)N3)C2)n1` [Compound 135] reads “***** (>2.5° C.=*****)”; that for `COC(=O)c1cc(N2CC3(CN(CC(O)c4nc5c(C)cc(OC[C@H](C)c6ccccc6)cn5n4)C(=O)N3)C2)ccn1` (some centres unmarked) [Compound 137], “***** (>2.5° C.=*****)”. For the molecule `COC(=O)c1cnc(N2CCC3(CC2)CN(CC(O)c2nc4c(C)cc(OCC5(c6ccccc6)CC5)cn4n2)C(=O)N3)c2nccn12` (centres unmarked) [Compound 136], the “DSF temperature shift” value is on record as “***** (>2.5° C.=*****)”. The result for `Cc1cc(OC[C@H](C)c2ccccc2)cn2nc(CCN3CC4(CCN(c5cccc(Cl)n5)CC4)NC3=O)nc12` [Compound 102] reads “*** (>1-1.5° C.=***)”; that for `Cc1cc(OCC2(c3ccccc3)CC2)cn2nc(C(O)CN3CC4(CCN(c5nnn(C)n5)CC4)NC3=O)nc12` (centres unmarked) [Compound 62], “**** (>1.5-2.5° C.=****)”. As to `Cc1cc(OC[C@H](C)c2ccccc2)cn2nc(C(O)CN3CC4(CN(c5ccnc(O)n5)C4)NC3=O)nc12` (some centres unmarked) [Compound 85], the “DSF temperature shift” value is on record as “***** (>2.5° C.=*****)”. For `Cc1cc(OCC2(c3ccccc3)CC2)cn2nc(C(O)CN3CC4(CCN(c5ccnc(Cl)c5)CC4)NC3=O)nc12` (centres unmarked) [Compound 37] the value was “**** (>1.5-2.5° C.=****)”; for `Cc1cc(OC[C@H](C)c2ccccc2)cn2nc(C(O)CN3CC4(CCN(c5nccn6cnnc56)CC4)OC3=O)nc12` (some centres unmarked) [Compound 77], “**** (>1.5-2.5° C.=****)”; for `Cc1cc(N2CC3(CN(CC(O)c4nc5c(C)cc(OC[C@H](C)c6ccccc6)cn5n4)C(=O)N3)C2)cc(O)n1` (some centres unmarked) [Compound 16], “***** (>2.5° C.=*****)”.

For the molecule `Cc1cc(OC[C@H](C)c2ccccc2)cn2nc(CCN3CC4(CCN(C(=O)c5nncn5C)CC4)NC3=O)nc12` [Compound 93], the “DSF temperature shift” value was “**** (>1.5-2.5° C.=****)”. The result for `Cc1cc(N2CC[C@@](C)(c3ccccc3)C2)cn2nc(C(O)CN3CC4(CCN(c5ccnc(O)c5)CC4)NC3=O)nc12` (some centres unmarked) [Compound 21] reads “***** (>2.5° C.=*****)”; that for `Cc1cc(OCC(C)c2ccccc2)cn2nc(CCN3CC4(CCN(c5nccn6ccnc56)CC4)NC3=O)nc12` (centres unmarked) [Compound 9, 8-(Imidazo[1,2-a]pyrazin-8-yl)-3-(2-(8-methyl-6-(2-phenylpropoxy)-[1,2,4]triazolo[1,5-a]pyridin-2-yl)ethyl)-1,3,8-triazaspiro[4.5]decan-2-one], “***** (>2.5° C.=*****)”; that for `Cc1nccc(N2CCC3(CC2)CN(CC(O)c2nc4c(C)cc(OCC5(c6ccccc6)CC5)cn4n2)C(=O)N3)n1` (centres unmarked) [Compound 50], “**** (>1.5-2.5° C.=****)”. Consider `Cc1cc(OC[C@H](C)c2ccccc2)cn2nc(CCN3CC4(CCN(c5ncc(F)cn5)CC4)OC3=O)nc12` [Compound 114], for which the “DSF temperature shift” value is on record as “*** (>1-1.5° C.=***)”. The result for `Cc1cc(OCC2(c3ccccc3)CC2)cn2nc(C(O)CN3CC4(CCN(C(=O)c5nncn5C)CC4)NC3=O)nc12` (centres unmarked) [Compound 30, 3-(2-hydroxy-2-(8-methyl-6-((1-phenylcyclopropyl)methoxy)-[1,2,4]triazolo[1,5-a]pyridin-2-yl)ethyl)-8-(4-methyl-4H-1,2,4-triazole-3-carbonyl)-1,3,8-triazaspiro[4.5]decan-2-one] reads “**** (>1.5-2.5° C.=****)”; that for `Cc1cc(OCC2(c3ccccc3)CC2)cn2nc(C(O)CN3CC4(CCN(C(=O)Cn5nnnc5C)CC4)NC3=O)nc12` (centres unmarked) [Compound 34], “**** (>1.5-2.5° C.=****)”; that for `COc1ccc(N2CCC3(CC2)CN(CCc2nc4c(C)cc(OC[C@H](C)c5ccccc5)cn4n2)C(=O)N3)c(C)n1` [Compound 141], “** (>0.5-1° C.=**)”. For the molecule `C[C@]1(c2ccccc2)CCN(c2cc(CO)c3nc(C(O)CN4CC5(CN(c6ccnc(O)c6)C5)NC4=O)nn3c2)C1` (some centres unmarked) [Compound 146], the “DSF temperature shift” value is on record as “***** (>2.5° C.=*****)”. For `Cc1ccc(N2CCC3(CC2)CN(CC(O)c2nc4c(C)cc(OCC5(c6ccccc6)CC5)cn4n2)C(=O)N3)cn1` (centres unmarked) [Compound 128], the “DSF temperature shift” value is “**** (>1.5-2.5° C.=****)”. The result for `CCC1(c2ccccc2)CCN(c2cc(C)c3nc(CCN4CC5(CCN(c6nccn7ccnc67)CC5)NC4=O)nn3c2)C1` (centres unmarked) [Compound 5] reads “***** (>2.5° C.=*****)”. Take `Cc1cc(OC[C@H](C)c2ccccc2)cn2nc(C(C)(O)CN3CC4(CCN(C(=O)c5nncn5C)CC4)NC3=O)nc12` (some centres unmarked) [Compound 65]: the “DSF temperature shift” value is recorded as “**** (>1.5-2.5° C.=****)”. On to `Cc1cc(OC[C@H](C)c2ccccc2)cn2nc(C(O)CN3CC4(CN(c5ccnc(C(=O)O)c5)C4)NC3=O)nc12` (some centres unmarked) [Compound 80], for which the “DSF temperature shift” value is reported as “***** (>2.5° C.=*****)”. On to `Cc1cc(N2CC[C@@](C)(c3ccccc3)C2)cn2nc(C(C)(O)CN3CC4(CCN(c5ccnc(O)c5)CC4)NC3=O)nc12` (some centres unmarked) [Compound 20], for which the “DSF temperature shift” value is recorded as “***** (>2.5° C.=*****)”. The result for `Cc1noc(N2CCC3(CC2)CN(CCc2nc4c(C)cc(OC[C@H](C)c5ccccc5)cn4n2)C(=O)N3)n1` [Compound 108] reads “***** (>2.5° C.=*****)”.

Turning to `Cc1cc(OC[C@@H](C)c2ccccc2)cn2nc(CCN3CC4(CCN(c5nccn6cncc56)CC4)NC3=O)nc12` [Compound 12], the “DSF temperature shift” value is “***** (>2.5° C.=*****)”. `Cc1cc(OC[C@H](C)c2ccccc2)cn2nc(C(O)CN3CC4(CN(c5ccnc(O)c5)C4)OC3=O)nc12` (some centres unmarked) [Compound 81]: the “DSF temperature shift” value is “***** (>2.5° C.=*****)”. The result for `C[C@@H](COc1cc(CO)c2nc(C(O)CN3CC4(CN(c5ccnc(O)c5)C4)NC3=O)nn2c1)c1ccccc1` (some centres unmarked) [Compound 144] reads “***** (>2.5° C.=*****)”; that for `Cc1cc(OCC2(c3ccccc3)CC2)cn2nc(C(O)CN3CC4(CCN(c5cnc(Cl)cn5)CC4)NC3=O)nc12` (centres unmarked) [Compound 55], “**** (>1.5-2.5° C.=****)”; that for `CC(=O)N1CCC(N2CCC3(CC2)CN(CC(O)c2nc4c(C)cc(OCC5(c6ccccc6)CC5)cn4n2)C(=O)N3)CC1` (centres unmarked) [Compound 15], “*** (>1-1.5° C.=***)”. The result for `Cc1cc(OCC2(c3ccccc3)CC2)cn2nc(C(O)CN3CC4(CCN(c5cnc(C#N)c(F)c5)CC4)NC3=O)nc12` (centres unmarked) [Compound 38] reads “**** (>1.5-2.5° C.=****)”. The result for `Cc1cc(OCC2(c3ccccc3)CC2)cn2nc(C(O)CN3CC4(CCN(c5ccc(C(=O)O)nc5)CC4)NC3=O)nc12` (centres unmarked) [Compound 48] reads “**** (>1.5-2.5° C.=****)”; that for `Cc1cc(OCC2(c3ccccc3)CC2)cn2nc(C(O)CN3CC4(CCN(c5ncc(C(=O)O)n6ccnc56)CC4)NC3=O)nc12` (centres unmarked) [Compound 54], “**** (>1.5-2.5° C.=****)”; that for `CNC(=O)c1cc(N2CCC3(CC2)CC(=O)N(CC(C)(O)c2nc4c(C)cc(OC[C@H](C)c5ccccc5)cn4n2)C3)ccn1` (some centres unmarked) [Compound 131], “*** (>1-1.5° C.=***)”. Take `Cc1cc(OC[C@H](C)c2ccccc2)cn2nc(CCN3CC4(CCN(C(=O)c5ncnn5C)CC4)NC3=O)nc12` [Compound 92]: the “DSF temperature shift” value is listed as “**** (>1.5-2.5° C.=****)”.

Regarding `Cc1cc(OC[C@H](C)c2ccccc2)cn2nc(CCN3CC4(CCN(c5ccc(C#N)cn5)CC4)NC3=O)nc12` [Compound 100], the “DSF temperature shift” value is on record as “**** (>1.5-2.5° C.=****)”. For `Cc1cc(OCC2(c3ccccc3)CC2)cn2nc(C(O)CN3CC4(CCN(C(=O)Cc5nnc[nH]5)CC4)NC3=O)nc12` (centres unmarked) [Compound 32] the value was “**** (>1.5-2.5° C.=****)”; for `COC(CN1CC2(CCN(c3ccnc(O)c3)CC2)NC1=O)c1nc2c(C)cc(OC[C@H](C)c3ccccc3)cn2n1` (some centres unmarked) [Compound 138], “**** (>1.5-2.5° C.=****)”; for `Cc1cc(OCC2(c3ccccc3)CC2)cn2nc(C(O)CN3CC4(CCN(c5cccnc5C(F)(F)F)CC4)NC3=O)nc12` (centres unmarked) [Compound 35], “**** (>1.5-2.5° C.=****)”. The result for `Cc1cc(OC[C@H](C)c2ccccc2)cn2nc(CCN3CC4(CCN(c5nccn6cncc56)CC4)NC3=O)nc12` [Compound 63] reads “**** (>1.5-2.5° C.=****)”; that for `Cc1cc(OC[C@H](C)c2ccccc2)cn2nc(CCN3CC4(CCN(c5cc(Cl)nc(S(C)(=O)=O)n5)CC4)NC3=O)nc12` [Compound 99], “**** (>1.5-2.5° C.=****)”; that for `Cc1cc(N2CC[C@](C)(c3ccccc3)C2)cn2nc(CCN3CC4(CCN(c5nccn6ccnc56)CC4)NC3=O)nc12` [Compound 2], “***** (>2.5° C.=*****)”.

In the case of `Cc1cc(OC[C@H](C)c2ccccc2)cn2nc(CCN3CC4(CCN(c5ccnc(S(C)(=O)=O)n5)CC4)NC3=O)nc12` [Compound 106], the “DSF temperature shift” value is reported as “***** (>2.5° C.=*****)”.
